Results from patent publication US20220033355A1, “CRYSTAL FORM A OF 2-(2, 5-DIOXOPYRROLIDIN-1YL) ETHYL METHYL FUMARATE, PREPARATION METHOD THEREFOR AND USE THEREOF” (SHENZHEN RENTAI PHARMATECH LTD., priority 2019, published 2022).
Counter-ions that a name gives are not always drawn.

Key:
Format in all cases: physicochemical
[1] = High-temperature stability of the crystal form (XRPD comparison); conditions: 60° C.
Protocol: (§1) Method: Cu target Ka, voltage: 40 KV, current: 40 mA, test angle: 3-45°, scanning step: 0.02, exposure time: 0.2S, slit width of light pipe: 2 mm, Dtex detector.
(2) High-temperature stability: the test sample is placed at a temperature of 60° C. for 5 days and 10 days, respectively, to test the stability of the crystal form.
(2) High-temperature stability: by referring to the same method of high-temperature stability test for crystal A, the test sample is placed at a temperature of 60° C. for 5 days to test the stability of the crystal form, which is compared with XRPD pattern of the crystal form I on day 0.

[2] = Light stability of the crystal form (XRPD comparison); conditions: 25° C., 4500 Lux
Protocol: as §1
(1) Light stability: the test sample is placed in an environment having a temperature of 25° C. and a light condition of 4500 Lux for 5 days and 10 days, respectively, to test the stability of the crystal form.
(1) Light stability: by referring to the same method of light stability test for crystal A, the test sample is placed in an environment having a temperature of 25° C. and a light condition of 4500 Lux for 5 days to test the stability of the crystal form, which is compared with XRPD pattern of the crystal form I on day 0.

[3] = Dynamic vapor sorption (DVS) hygroscopicity study; conditions: 25° C., RH stepped up from RH 0 to RH 90% at RH 10% per step, 10 min per step, when RH 90% is completed
Protocol: Model: DVS intrinsic (SMS, British); Method: 25° C., relative humidity is stepped up at a rate of 10%, the judgment standard is change in moisture content is <0.02% over a 10-minute period. Dynamic vapor sorption (DVS) experiment are performed for the crystal form I of Example 1 and the crystal form A prepared in Example 2 to obtain DVS curves under the following conditions: the temperature is 25° C., the relative humidity (RH) is stepped up from RH 0 to RH 90% at a rate of RH 10% per step, with 10 min for each step to reach equilibrium.

[4] = High-humidity stability 1 of the crystal form (XRPD comparison); conditions: 92.5% RH, 25° C.
Protocol: as §1
(3) High-humidity stability 1: the test sample is placed in an environment having a humidity of 92.5% RH and a temperature of 25° C. for 5 days and 10 days, respectively, to test the stability of the crystal form.
(§2) (3) High-humidity stability 1: by referring to the same method of high-humidity stability test 1 for crystal A, the test sample is placed in an environment having a humidity of 92.5% RH and a temperature of 25° C. for 5 days to test the stability of the crystal form, which are compared with XRPD pattern of the crystal form I on day 0.

[5] = High-humidity stability 2 of the crystal form (XRPD comparison); conditions: 75% RH, 40° C.
Protocol: as §1
(4) High-humidity stability 2: the test sample is placed in an environment having a humidity of 75% RH and a temperature of 40° C. for 5 days and 10 days, respectively, to test the stability of the crystal form.
as §2, with “(4)” for “(3)”, “2:” for “1:”, “2” for “1”, “75%” for “92.5%”, “40°” for “25°”

[6] = 5 days, XRPD compared with day 0

| weight increase due to moisture absorption [3] [%] | high-temperature stability of the crystal form ([1]; 5 days and 10 days, XRPD) | light stability of the crystal form ([2]; 5 days and 10 days, XRPD) | high-humidity stability 1 of the crystal form ([4]; 5 days and 10 days, XRPD) | high-humidity stability 2 of the crystal form ([5]; 5 days and 10 days, XRPD) | Compound | high-temperature stability of the crystal form [1, 6] | light stability of the crystal form [2, 6] | high-humidity stability 1 of the crystal form [4, 6] | high-humidity stability 2 of the crystal form [5, 6] |
| --- | --- | --- | --- | --- | --- | --- | --- | --- | --- |
| 0.642 | – | – | – | – | COC(=O)/C=C/C(=O)OCCN1C(=O)CCC1=O [crystal form I, 2-(2,5-dioxopyrrolidin-1yl)ethyl methyl fumarate] | unstable under high temperatures and easily transforms into crystal form A | unstable under lights and easily transforms into crystal form A | unstable under high humidity and easily transforms into crystal form A | unstable under high humidity and easily transforms into crystal form A |
| – | good high-temperature stability | good light stability | good high-humidity stability | good high-humidity stability | COC(=O)/C=C/C(=O)OCCN1C(=O)CCC1=O [crystal form A, 2-(2,5-dioxopyrrolidin-1yl)ethyl methyl fumarate] | – | – | – | – |
